Results taken from patent publication US20240252668A1, “ANTIBODY DRUG CONJUGATES AND METHODS FOR MAKING THEREOF” (Novartis AG, priority 2021, published 2024).
Like-named read-outs stand apart in the source and are kept apart here. Starred links: 1 amine or outer side, 2 acyl side, 3 side chain; linkers in the order of their positions; H or OH if unused. Non-standard residues stand in square brackets, D forms with d. Residues, ends and D or L forms follow the SMILES beside them. *: point of attachment. Leu(3R-OH,Nα-propionyl) = CCC(=O)N[C@H](C(=O)*)[C@H](O)C(C)C; X1 = CC(C)[C@@H](O[*:3])[C@H](N[*:1])C(=O)[*:2]; NMeT = CN[C@H](C(=O)O)[C@@H](C)O; dPhLac = O=C(O)[C@H](O)Cc1ccccc1; X2 = CC(C)C=C(N[*:1])C(=O)[*:2]; NMeA = CN[C@@H](C)C(=O)O; NMeDha = C=C(NC)C(=O)O

Experiments:
[1] = test system: 92.1 uveal melanoma cell line (heterozygous GNAQ Q209L); assay: Cell proliferation assay (resazurin cell viability), 92.1 cell line; type: cell-based
From the text: (§1) Cell Proliferation Assays with Chromodepsins (compounds (A1) and 2-15): Cell line descriptions: 92.1—uveal melanoma cell line, derived from primary tumor, harboring heterozygous GNAQ Q209L mutation. Purchased from Sigma Aldrich. MP41 (CRL-3297) -uveal melanoma cell line, derived from primary tumor, harboring heterozygous GNA11 Q209L mutation. Purchased from ATCC. A375—skin melanoma cell line, harboring homozygous BRAF V600E mutation. Origin: Cancer Cell Line Encyclopedia (CCLE). SK-MEL-30—skin melanoma cell line, harboring heterozygous NRAS Q61K mutation. Origin: CCLE.
(§2) Cells were cultured in 96-well plates in a total volume of 100 μL at 37° C., 5% CO2 and 95% relative humidity. All cell lines were cultured in RPMI Medium (RPMI 1640 w/o L-glutamine, Bioconcept ref. 1-41F01-I) except A375, DMEM medium (DMEM high glucose (4.5 g/L), Bioconcept, ref. 1-26F01-I), and supplemented with 10% FCS (Bioconcept, ref. 2-01F30-I). Two to three thousand cells were seeded in 96-well plates per well the night before they were treated with compounds (concentration range: from 260 nM to 0.036 nM with ⅓ dilution steps; for 7 the concentration range was increased from 10000 nM to 1.52 nM with ⅓ dilution steps). Cell viability was measured by addition of 10 ul of resazurin per well after 96 hours of treatment. Results were analyzed and plotted using GraphPad Prism 9.0.1.

[2] = test system: MP41 uveal melanoma cell line (heterozygous GNA11 Q209L); assay: Cell proliferation assay (resazurin cell viability), MP41 cell line; type: cell-based
From the text: as §1, §2

[3] = test system: A375 skin melanoma cell line (homozygous BRAF V600E); assay: Cell proliferation assay (resazurin cell viability), A375 cell line; type: cell-based
From the text: as §1, §2

[4] = test system: SK-MEL-30 skin melanoma cell line (heterozygous NRAS Q61K); assay: Cell proliferation assay (resazurin cell viability), SK-MEL-30 cell line; type: cell-based
From the text: as §1, §2

[5] = test system: MDCK-LE monolayers; assay: Cell-based transwell assay with MDCK-low efflux monolayers (passive permeability); type: in vitro ADME; details: MDCK-LE monolayers
Procedure: Cell-based transwell assays with MDCK-low efflux monolayers: Compounds (A1) and 2-15 were tested in MDCK cell sub-clones with low effluxt ransporter activity (MDCK-LE) in order to determine their passive permeability. The incubations were performed at a contract research organization as described previously.

[6] = EPSA determination by supercritical fluid chromatography; type: physicochemical; details: modified EPSA method, SFC
Procedure: […] by supercritical fluid chromatography: Compounds (A1) and 2-15 were tested by supercritical fluid chromatography (SFC) to determine their ESAPSA values. Samples were analyzed using a Chirex 3014 column ([…], 3×100 mm column, 100 Å pore size; Phenomenex. The starting conditions were 5% methanol containing 20 mM ammonium formate and 95% scCO2. The gradient was increased linearly to 60% methanol containing 20 mM ammonium formate in 4.5 min.

[7] = Plasma incubation of compound (A1), human plasma, LC-MS/MS quantification; type: in vitro ADME; details: formed in incubation of (A1) in human plasma, 37° C.
Procedure: Plasma incubations and sample preparation: Compound (A1) was spiked at 5.00 μg/mL in PBS and pooled mixed gender mouse (CD-1), cynomolgus monkey and human plasma. Samples were incubated on a Thermomixer (Eppendorf) at 37° C. while shaking at 650 rpm. Aliquots of 50 μL (n=3) were drawn from each incubation tube following 0, 0.5, 1, 2, 4, 8 and 24 h of incubation. 50 μL of sample was quenched with 200 μL of acetonitrile, containing both generic internal standards, glybenclamide and warfarin, at 62.5 ng/mL. Samples were briefly vortexed and centrifuged for 20 min at 4000 rpm and 4° C. 200 μL of the supernatant was transferred into a clean 800 μL 96-well sample collection plate.
Quantification by LC-MS/MS: LC-MS/MS analysis was conducted with a Shimadzu Nexera UPLC coupled to AB Sciex QTRAP 6500 using the SRM acquisition mode (3 μL injected). Samples were analyzed using a ACE 3° C.18-PFP (3 μM, 2.1×50 mm column) at a column temperature of 65° C. The starting conditions were 97% H20 containing 0.1% formic acid and 3% CH3CN containing 0.1% formic acid. Quantification of compound (A1) and 5 was performed by MS-MRM (electrospray in positive mode, ion spray voltage: 5000 V, source temperature: 500° C., curtain gas: 25 psig, nebulizer gas: 60 psig, turbo ion spray gas: 40 psig, mass range: low, resolution Q1/Q3: unit, collision gas: medium, dwell time: 12 msec). Separate calibration curves were established with calibration standards of compounds (A1) and 5 at concentrations of 10.0, 5.00, 2.50, 1.00, 0.500, 0.100, 0.050 and 0.010 μg/mL respectively. Peak integration and quantification was conducted with the AB Sciex Analyst software (v.1.7) using the Analyst Classic algorithm. […]

C=C(C(=O)N[C@@H](C)C(=O)N(C)[C@@H](C)C(=O)N[C@H](C(=O)N(C)[C@H](C(=O)O)[C@@H](C)OC)[C@H](OC(=O)[C@@H](NC(=O)CC)[C@H](O)C(C)C)C(C)C)N(C)C(=O)[C@@H](Cc1ccccc1)OC(=O)C(=CC(C)C)NC(C)=O [Compound 5] (Ac-[X2][dPhLac][NMeDha]A[NMeA][X1](Leu(3R-OH,Nα-propionyl))[NMeT](Me)-OH)
GI50 ([1]; 92.1 (GNAQ Q209L), 96 hours of treatment, read-out: GI50 by cell line, 92.1): > 0.26 µM | GI50 ([1]; 92.1 cell line, average of Rep. 1 and 2, read-out: GI50 92.1 Average): > 0.26 µM | GI50 ([1]; 92.1 cell line, replicate 1, read-out: GI50 92.1 Rep. 1): > 0.26 µM | GI50 ([1]; 92.1 cell line, replicate 2, read-out: GI50 92.1 Rep. 2): > 0.26 µM | GI50 ([2]; MP41 (GNA11 Q209L), 96 hours of treatment, read-out: GI50 by cell line, MP41): > 0.26 µM | GI50 ([2]; MP41 cell line, average of Rep. 1 and 2, read-out: GI50 MP41 Average): > 0.26 µM | GI50 ([2]; MP41 cell line, replicate 1, read-out: GI50 MP41 Rep. 1): > 0.26 µM | GI50 ([2]; MP41 cell line, replicate 2, read-out: GI50 MP41 Rep. 2): > 0.26 µM | GI50 ([3]; A375 (GNAQ/11 wild type), 96 hours of treatment, read-out: GI50 by cell line, A375): > 0.26 µM | GI50 ([3]; A375 cell line, average of Rep. 1 and 2, read-out: GI50 A375 Average): > 0.26 µM | GI50 ([3]; A375 cell line, replicate 1, read-out: GI50 A375 Rep. 1): > 0.26 µM | GI50 ([3]; A375 cell line, replicate 2, read-out: GI50 A375 Rep. 2): > 0.26 µM | GI50 ([4]; SK-MEL-30 (GNAQ/11 wild type), 96 hours of treatment, read-out: GI50 by cell line, SK-MEL-30): > 0.26 µM | GI50 ([4]; SK-MEL-30 cell line, average of Rep. 1 and 2, read-out: GI50 SK-MEL-30 Average): > 0.26 µM | GI50 ([4]; SK-MEL-30 cell line, replicate 1, read-out: GI50 SK-MEL-30 Rep. 1): > 0.26 µM | GI50 ([4]; SK-MEL-30 cell line, replicate 2, read-out: GI50 SK-MEL-30 Rep. 2): > 0.26 µM | % Fraction absorbed [5]: 4.2% | % Recovery [5]: 86% | Papp A − B [5]: 2.7 nm/s | EPSA [6]: 229 A^2 | Concentration of 5, Aliquot 1 ([7]; 0 h): BLQ | Concentration of 5, Aliquot 2 ([7]; 0 h): BLQ | Concentration of 5, Aliquot 3 ([7]; 0 h): BLQ | Concentration of 5, Aliquot 1 ([7]; 0.5 h): 0.0613 µg/mL | Concentration of 5, Aliquot 2 ([7]; 0.5 h): 0.0673 µg/mL | Concentration of 5, Aliquot 3 ([7]; 0.5 h): 0.0671 µg/mL | Mean concentration of 5 ([7]; 0.5 h): 0.0652 µg/mL | Concentration of 5, Aliquot 1 ([7]; 1 h): 0.117 µg/mL | Concentration of 5, Aliquot 2 ([7]; 1 h): 0.123 µg/mL | Concentration of 5, Aliquot 3 ([7]; 1 h): 0.142 µg/mL | Mean concentration of 5 ([7]; 1 h): 0.127 µg/mL | Concentration of 5, Aliquot 1 ([7]; 2 h): 0.255 µg/mL | Concentration of 5, Aliquot 2 ([7]; 2 h): 0.289 µg/mL | Concentration of 5, Aliquot 3 ([7]; 2 h): 0.317 µg/mL | Mean concentration of 5 ([7]; 2 h): 0.287 µg/mL | Concentration of 5, Aliquot 1 ([7]; 4 h): 0.615 µg/mL | Concentration of 5, Aliquot 2 ([7]; 4 h): 0.647 µg/mL | Concentration of 5, Aliquot 3 ([7]; 4 h): 0.677 µg/mL | Mean concentration of 5 ([7]; 4 h): 0.646 µg/mL | Concentration of 5, Aliquot 1 ([7]; 8 h): 1.37 µg/mL | Concentration of 5, Aliquot 2 ([7]; 8 h): 1.48 µg/mL | Concentration of 5, Aliquot 3 ([7]; 8 h): 1.57 µg/mL | Mean concentration of 5 ([7]; 8 h): 1.47 µg/mL | Concentration of 5, Aliquot 1 ([7]; 24 h): 3.14 µg/mL | Concentration of 5, Aliquot 2 ([7]; 24 h): 2.82 µg/mL | Concentration of 5, Aliquot 3 ([7]; 24 h): 3.14 µg/mL | Mean concentration of 5 ([7]; 24 h): 3.03 µg/mL
